We go through 14 compounds from US6960606B2, “Adamantyl Thiazole Thioureas” (Parker Hughes Institute, priority 2000, dated 2005).

Read-outs that look alike come from different tables or passages of the source.

One data set concerns HIV-1 strain HTLVIIIB
As to the kind of experiment: Inhibition of HIV-1 HTLVIIIB replication in PBMC (p24 antigen EIA). It counts as cell-based. The note with it: for IC50: HIV-1 HTLVIIIB in human PBMC, p24 on day 7, read-out: IC50 HTLVHIB. On the procedure: (§1) Normal human peripheral blood mononuclear cells (PBMNC) from HIV-negative donors were cultured 72 hours in RPMI 1640 supplemented with 20% (v/v) heat-inactivated fetal bovine serum (FBS), 3% interleukin-2, 2 mM L-glutamine, 25 mM HEPES, 2 g/L NaHCO3, 50 μg/mL gentamicin, and 4 μg/mL phytohemagglutinin prior to exposure to the HIV-1 strain HTLVIIIB. The cells were then infected with virus at a multiplicity of infection (MOI) of 0.1 during a 1-hour adsorption period at 37° C. in a humidified 5% CO2 atm. Subsequently, cells were cultured in 96-well microtiter plates (100 μl/well; 2×10^6 cells/mL) in the presence of various inhibitor concentrations. Aliquots of culture supernatants were removed from the wells on the 7th day after infection for p24 antigen assays. The applied p24 enzyme immunoassay (EIA) was the unmodified kinetic assay commercially available from Coulter Corporation/Immunotech, Inc. (Westbrooke, Me.), which utilizes a murine mAb to HIV core protein coated onto microwell strips to which the antigen present in the test culture supernatant samples binds. Percent viral inhibition was calculated by comparing the p24 values from the test substance-treated infected cells with p24 values from untreated infected cells (i.e., virus controls). The effects of various treatments on cell viability were also examined and the results were expressed as the cytotoxic concentration (CC)50 values. The selectivity indices (SI) were calculated using the formula: SI=CC50/IC50.

For data set [1], the system named is A17 variant with Y181C plus K103N mutations in RT. As to the kind of experiment: microbe, parasite or virus in culture. It counts as cell-based, HIV-1. To be noted: for effective concentrations against NNRTI-resistant HIV-1 isolate A17 variant (in words): both NNRTI-resistant isolates.
For data set [2], the system named is NNRTI-resistant HIV-1 strain A17 with a Y181C mutation in RT. As to the kind of experiment: microbe, parasite or virus in culture. Format: cell-based. To be noted: for effective concentrations against NNRTI-resistant HIV-1 isolate A17 (in words): both NNRTI-resistant isolates.
The test system of data set [3] is human peripheral blood mononuclear cells (PBMC). Put plainly: Cell viability / cytotoxicity in PBMC. Format: cell-based. To be noted: for CC50: cytotoxic concentration, PBMC viability. On the procedure: as §1
The mark [4] stands for this setting: Human immunodeficiency virus 1, 168 h.
Setting [5] is: Human immunodeficiency virus 1, read-out: IC50 A17 variant.
Where [6] appears, read: Human immunodeficiency virus 1, read-out: IC50 A17.
Setting [7] is: NNRTI-resistant HIV, A17 variant (Y181C plus K103N), read-out: IC50 A17 variant.
[8] abbreviates: NNRTI-resistant HIV, A17 (Y181C), read-out: IC50 A17.

As to “N-[2-(2-Piperdine)ethyl]-N′-[2-(thiazolyl)]thiourea [Compound 9]”, the IC50 with HIV-1 strain HTLVIIIB was more than 100 µM.
`Cc1ccnc2c1NC(=O)c1cccnc1N2C1CC1` [Nevirapine, reference compound]: the values for the 50% inhibitory concentration (IC50) (with HIV-1 strain HTLVIIIB (setting [4]); in data set [1] (setting [5]); in data set [2] (setting [6])) were 0.034 µM, more than 100 µM and more than 100 µM, respectively.
With “N-[1-(1-Furoylmethyl)]-N′-[2-(thiazolyl)]thiourea [Compound 6]”, in the data set on HIV-1 strain HTLVIIIB, the “IC50 values, inhibition of HIV-1 replication (in words)” value (from here on “IC50 values, inhibition”) is “subnanomolar” and the IC50 was less than 0.001 µM. Moreover, the concentration for half-maximal inhibition (IC50) in data set [1] (setting [7]) was determined as 0.6 µM. The “effective concentrations against NNRTI-resistant HIV-1 isolate A17 variant (in words)” value in data set [1] is “nanomolar to low micromolar”. Further, the “effective concentrations against NNRTI-resistant HIV-1 isolate A17 (in words)” value in data set [2] is recorded as “nanomolar to low micromolar”. In data set [3], the “toxicity to PBMC (in words)” value is given as “minimally toxic” and the CC50 is more than 100 µM.
`CC(C)Nc1cccnc1N1CCN(C(=O)c2cc3cc(NS(C)(=O)=O)ccc3[nH]2)CC1` [Delavirdine, reference compound]: the IC50 in the data set on HIV-1 strain HTLVIIIB (setting [4]) was 0.009 µM; in data set [1] (setting [5]), more than 100 µM; in data set [2] (setting [6]) it was 50 µM.
For “N-[2-(4-Methylphenyl)ethyl]-N′-[2-(thiazolyl)]thiourea [Compound 4]”, the IC50 is 0.07 µM in the data set on HIV-1 strain HTLVIIIB and more than 100 µM in data set [1] (setting [7]). For the same compound, in data set [3], the CC50 is more than 100 µM.
Take “N-[3-(Pyrrolidinone)propyl]-N′-[2-(thiazolyl)]thiourea [Compound 12]”: the IC50 in the data set on HIV-1 strain HTLVIIIB was 9 µM. Half-maximal cytotoxicity in data set [3] (CC50) was put at 18 µM.
Consider “N-[2-Pyridylethyl]-N′-[2-(thiazolyl)]thiourea [Compound 11]”, for which the IC50 in the data set on HIV-1 strain HTLVIIIB turned out to be 1 µM. This compound also displayed a CC50 in data set [3] of 100 µM.
On to “N-[2-(4-Hydroxyphenyl)ethyl]-N′-[2-(thiazolyl)]thiourea [Compound 10]”, for which the IC50 in the data set with HIV-1 strain HTLVIIIB was more than 100 µM.
In the case of “N-[3-(2-Imidazole)propyl]-N′-[2-(thiazolyl)]thiourea [Compound 7]”, the “IC50 values, inhibition” value with HIV-1 strain HTLVIIIB is reported as “subnanomolar”. In addition, the figures for the IC50 (in the data set with HIV-1 strain HTLVIIIB; in data set [1] (setting [7]); in data set [2] (setting [8])) were less than 0.001 µM, more than 100 µM and more than 100 µM, respectively. Also, in data set [3], the CC50 came out at 35 µM.
Take “N-[2-(Phenoxyethyl)]-N′-[2-(thiazolyl)]thiourea [Compound 3]”: in the data set on HIV-1 strain HTLVIIIB, the “IC50 values, inhibition” value was “subnanomolar” and the IC50 was less than 0.001 µM. In data set [1] (setting [7]), the IC50 is more than 100 µM. The same compound displayed a CC50 in data set [3] of more than 100 µM.
For the compound “N-[2-(2-Thiophenylethyl)]-N′-[2-(thiazolyl)]thiourea [Compound 1]”, in the data set with HIV-1 strain HTLVIIIB, the “IC50 values, inhibition” value is “subnanomolar”. In addition, the half-inhibitory concentration (IC50) in the data set with HIV-1 strain HTLVIIIB was less than 0.001 µM; in data set [2] (setting [8]), more than 100 µM. The compound also registered a CC50 in data set [3] of 71 µM.
For the compound “N-[2-(1-Cyclohexenylethyl)]-N′-[2-(thiazolyl)]thiourea [Compound 2]”, the IC50 in the data set on HIV-1 strain HTLVIIIB was 0.007 µM; in data set [1] (setting [7]) it was more than 100 µM; in data set [2] (setting [8]), 0.9 µM. The same compound had a CC50 in data set [3] of 4 µM.
Take “N-[1-(1-Adamantyl)methyl]-N′-[2-(thiazolyl)]thiourea [Compound 5]”: in the data set on HIV-1 strain HTLVIIIB, the “IC50 values, inhibition” value is given as “subnanomolar” and the IC50 was less than 0.001 µM. The “effective concentrations against NNRTI-resistant HIV-1 isolate A17 variant (in words)” value in data set [1] is “nanomolar to low micromolar”. Also, the 50% inhibitory concentration (IC50) in data set [2] (setting [8]) is 0.6 µM. Besides, the “effective concentrations against NNRTI-resistant HIV-1 isolate A17 (in words)” value in data set [2] was “nanomolar to low micromolar”. The CC50 in data set [3] came to 40 µM.
In the case of “N-[2-(2-Indole)ethyl]-N′-[2-(thiazolyl)]thiourea [Compound 8]”, in the data set with HIV-1 strain HTLVIIIB, the “IC50 values, inhibition” value is “subnanomolar” and the IC50 is less than 0.001 µM. Further, in data set [1], the “effective concentrations against NNRTI-resistant HIV-1 isolate A17 variant (in words)” value was “nanomolar to low micromolar”. Also, the “effective concentrations against NNRTI-resistant HIV-1 isolate A17 (in words)” value in data set [2] is listed as “nanomolar to low micromolar”. Besides, the CC50 in data set [3] is 28 µM.

The IC50 is the concentration needed to halve the response being measured. By CC50 is commonly meant the concentration that lowers cell viability or growth by half. A lower CC50 goes with greater toxicity to the cells.
